Holding throughout (type): cell-based
Series [1] deals with Escherichia coli ATCC 25922. The note with it: ATCC 25922. The procedure, abridged:
(§1)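 Peptide stocks (1 mg/mL, water) were diluted two-fold into MH-II broth with 0.002% P-80 and mixed with approx. 10^6 CFU/mL bacteria. Plates were read visually after 18-20 hours at 35° C, with MIC expressed in μg/mL per CLSI.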

A further series has as its system Escherichia coli 926415. The note with it: 926415.
Series [2] concerns Acinetobacter baumannii 872842. The note with it: 872842.
Series [3] deals with Klebsiella pneumoniae SSI #3010. Particulars: SSI #3010. The procedure, abridged: as §1
Series [4] deals with Pseudomonas aeruginosa ATCC 27853. The note with it: ATCC 27853. The procedure, abridged:
as §1

For series [5], the system named is Klebsiella pneumoniae 968733. Particulars: 968733.
The test system of series [6] is Acinetobacter baumannii DSM 30008. The note with it: DSM 30008. The procedure, abridged:
as §1

Series [7] deals with human red blood cells (hRBC). The series can be described thus: Hemolysis of human red blood cells. Particulars: red cells of human, 1 h, 100. The procedure, abridged: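 Each peptide was tested at a single concentration, 100 μg/mL. Erythrocytes (20% v/v) were incubated 1 h at 37° C. under shaking at 300 rpm, centrifuged, and released hemoglobin measured at OD540. Controls were PBS containing 0.001% acetic acid (0%) and Triton X-100 (100%).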

Where a SMILES comes first, the peptide text is derived from it. Bridges are numbered along the chain shown (N, C = ends). Roman numbers before positions name the chains, in order. [ ]: non-standard residue; d: D form. NMeDab = CN[C@@H](CCN)C(=O)O; Tle = CC(C)(C)[C@H](N)C(=O)O; dDab = NCC[C@@H](N)C(=O)O; Nle = CCCC[C@H](N)C(=O)O; Orn = NCCC[C@H](N)C(=O)O; Dab = NCC[C@H](N)C(=O)O

Three compounds from patent publication US10829520B2, “Beta-hairpin peptidomimetics” (POLYPHOR AG, priority 2015, dated 2020) can be followed below.

For the compound `CCCC[C@@H]1NC(=O)[C@@H]2CCCN2C(=O)[C@H]2CCCN2C(=O)[C@H](CO)NC(=O)[C@H](C)NC(=O)[C@H](C(C)(C)C)NC(=O)[C@H](CCN)NC(=O)[C@H](Cc2c[nH]c3ccccc23)NC(=O)[C@H](CCN)NC(=O)[C@@H](CCN)NC(=O)[C@H](CCC(=O)N[C@H](CCN)C(=O)N[C@H]2CCNC(=O)[C@H]([C@@H](C)O)NC(=O)[C@H](CCN)NC(=O)[C@H](CCN)NC(=O)[C@H](CC(C)C)NC(=O)[C@@H](CC(C)C)NC(=O)[C@H](CCN)NC2=O)NC(=O)[C@H](CCN)NC(=O)[C@H](Cc2ccc(O)cc2)NC(=O)[C@H](CO)NC1=O` [Ex. 72] (I: cyclo(W[Dab][Tle]AS[dP]P[Nle]SY[Dab]E[dDab][Dab]) / II: [dDab][Dab][Dab][dL]L[Dab][Dab]T; amide I:12-II:N; lactam II:2-II:C), the “Escherichia coli ATCC 25922 MIC” value in series [1] was found to be 1 µg/mL. In the series with Escherichia coli 926415, the “Escherichia coli 926415 MIC” value is 0.5 µg/mL. Further, the “Acinetobacter baumannii 872842 MIC” value in series [2] was determined as 1 µg/mL. In series [3], the “Klebsiella pneumoniae SSI #3010 MIC” value was found to be 1 µg/mL. Moreover, in series [4], the “Pseudomonas aeruginosa ATCC 27853 MIC” value was 1 µg/mL. For the same compound, the “Klebsiella pneumoniae 968733 MIC” value in series [5] came to 1 µg/mL. For the same compound, the “Acinetobacter baumannii DSM 30008 MIC” value in series [6] is 1 µg/mL. For the same compound, the “Hemolysis at 100 μg/mL” value in series [7] is on record as less than 1%.
`CCCC[C@@H]1NC(=O)[C@@H]2CCCN2C(=O)[C@H]2CCCN2C(=O)[C@H](CO)NC(=O)[C@H](C)NC(=O)[C@H](C(C)(C)C)NC(=O)[C@H](CCN)NC(=O)[C@H](Cc2c[nH]c3ccccc23)NC(=O)[C@H](CCN)NC(=O)[C@@H](CCN)NC(=O)[C@H](CC(=O)N(C)[C@@H](CCN)C(=O)N[C@H]2CCNC(=O)[C@H]([C@@H](C)O)NC(=O)[C@H](CCN)NC(=O)[C@H](CCN)NC(=O)[C@H](CC(C)C)NC(=O)[C@@H](CC(C)C)NC(=O)[C@H](CCN)NC2=O)NC(=O)[C@H](CCN)NC(=O)[C@H](Cc2ccc(O)cc2)NC(=O)[C@H](CO)NC1=O` [Ex. 73] (I: cyclo(W[Dab][Tle]AS[dP]P[Nle]SY[Dab]D[dDab][Dab]) / II: [NMeDab][Dab][Dab][dL]L[Dab][Dab]T; amide I:12-II:N; lactam II:2-II:C): the “Escherichia coli ATCC 25922 MIC” value in series [1] came to 0.25 µg/mL. The “Escherichia coli 926415 MIC” value in the series with Escherichia coli 926415 stood at 0.5 µg/mL. Besides, the “Acinetobacter baumannii 872842 MIC” value in series [2] amounted to 0.5 µg/mL. Further, the “Klebsiella pneumoniae SSI #3010 MIC” value in series [3] came out at 0.5 µg/mL. In series [4], the “Pseudomonas aeruginosa ATCC 27853 MIC” value came to 0.25 µg/mL. In series [5], the “Klebsiella pneumoniae 968733 MIC” value is 0.5 µg/mL. Further, the “Acinetobacter baumannii DSM 30008 MIC” value in series [6] stood at 0.25 µg/mL. Further, the “Hemolysis at 100 μg/mL” value in series [7] worked out at 1%.
As to `CCCC[C@@H]1NC(=O)[C@@H]2CCCN2C(=O)[C@H]2CCCN2C(=O)[C@H](CO)NC(=O)[C@H](C)NC(=O)[C@H](C(C)(C)C)NC(=O)[C@H](CCN)NC(=O)[C@H](Cc2c[nH]c3ccccc23)NC(=O)[C@H](CCN)NC(=O)[C@H](CCC(=O)N[C@@H](CCN)C(=O)N[C@H](CCN)C(=O)N[C@H]2CCNC(=O)[C@H]([C@@H](C)O)NC(=O)[C@H](CCN)NC(=O)[C@H](CCN)NC(=O)[C@H](CC(C)C)NC(=O)[C@@H](Cc3ccccc3)NC(=O)[C@H](CCN)NC2=O)NC(=O)[C@H](CCCN)NC(=O)[C@H](CCN)NC(=O)[C@H](Cc2ccc(O)cc2)NC(=O)[C@H](CO)NC1=O` [Ex. 74] (I: cyclo([Nle]SY[Dab][Orn]E[Dab]W[Dab][Tle]AS[dP]P) / II: [Dab][dDab][Dab][Dab][dF]L[Dab][Dab]T; amide I:6-II:N; lactam II:3-II:C), the “Escherichia coli ATCC 25922 MIC” value in series [1] turned out to be 2 µg/mL. In addition, the “Escherichia coli 926415 MIC” value in the series with Escherichia coli 926415 was 1 µg/mL. In addition, in series [2], the “Acinetobacter baumannii 872842 MIC” value was found to be 4 µg/mL. Moreover, in series [3], the “Klebsiella pneumoniae SSI #3010 MIC” value turned out to be 1 µg/mL. Further, the “Pseudomonas aeruginosa ATCC 27853 MIC” value in series [4] worked out at 1 µg/mL. In addition, in series [5], the “Klebsiella pneumoniae 968733 MIC” value was 2 µg/mL. The “Acinetobacter baumannii DSM 30008 MIC” value in series [6] turned out to be 1 µg/mL. In addition, the “Hemolysis at 100 μg/mL” value in series [7] worked out at 2%.
